Biological target: human IDO1 (Homo sapiens, UniProt P14902)
Assay: Assessment of human IDO-1 inhibitory activity in HEK cells (human IDO1/HEK293 cells, kynurenine read-out with Ehrlich reagent, absorbance 490 nm)
Type: cell-based
Design: expressed in transfected cells
Conditions: HEK Human IDO-1 cellular assay
Experimental: Exemplary compounds were tested for inhibition of IDO activity.
Assessment of Human IDO-1 Inhibitory Activity in HEK Cells
HEK293 cells were transfected with a pCDNA-based mammalian expression vector harboring human IDO1 cDNA (NM 002164.2) by electroporation. They were cultured in medium (DMEM with 10% FBS) containing 1 mg/ml G418 for two weeks. Clones of HEK293 cells that stably expressed human IDO1 protein were selected and expanded for IDO inhibition assay.
The human IDO1/HEK293 cells were seeded at 10,000 cells per 50 μL per well with RPMI/phenol red free media contains 10% FBS in a 384-well black wall clear bottom tissue culture plate (Matrix Technologies LLC) 100 nL of certain concentration of compound was then added to each well using ECHO liquid handling systems. The cells were incubated for 20 hours in 37° C. incubator with 5% CO2.
The compound treatments were stopped by adding trichloroacetic acid (Sigma-Aldrich) to a final concentration at 0.2%. The cell plate was further incubated at 50° C. for 30 minute. The equal volume supernatant (20 μL) and 0.2% (w/v) Ehrlich reagent (4-dimethylaminobenzaldehyde, Sigma-Aldrich) in glacial acetic acid were mixed in a new clear bottom 384-well plate. This plate was then incubated at room temperature for 30 minute. The absorbance at 490 nm was measured on Envision plate reader.
Compound IC50 values were calculated using the counts of 500 nM of a reference standard treatment as one hundred percent inhibition, and counts of no compound but DMSO treatment as zero percent inhibition.

human IDO1, sequence (P14902 whole entry): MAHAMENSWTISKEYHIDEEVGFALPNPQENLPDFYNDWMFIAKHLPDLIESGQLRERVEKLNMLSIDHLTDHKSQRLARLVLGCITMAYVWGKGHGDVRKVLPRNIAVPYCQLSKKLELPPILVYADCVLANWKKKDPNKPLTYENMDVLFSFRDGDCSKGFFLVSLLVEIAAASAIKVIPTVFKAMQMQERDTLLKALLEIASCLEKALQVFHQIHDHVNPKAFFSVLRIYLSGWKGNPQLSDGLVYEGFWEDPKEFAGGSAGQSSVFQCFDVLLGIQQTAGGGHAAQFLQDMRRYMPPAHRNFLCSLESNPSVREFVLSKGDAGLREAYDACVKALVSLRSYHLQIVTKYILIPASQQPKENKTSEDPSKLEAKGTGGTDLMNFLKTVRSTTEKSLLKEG

Structure (SMILES)	IC50 [µM]
CCOc1ncc(Nc2cc([C@@H](CC)CC(=O)O)ccc2N(CC)C2CCOCC2)cn1 (single isomer, unassigned) [Example 455]	< 0.05
CCC(CC(=O)O)c1ccc(N2CCC[C@H]2C(C)(C)O)c(NC(=O)Nc2ccc(OC)cc2)c1 (single isomer, unassigned) [Example 811]	> 0.05
CCc1ccc(Nc2cc([C@H](CC)CC(=O)O)ccc2N(CC(C)(C)O)C2CCCCC2)cc1 (single isomer, unassigned) [Example 239]	< 0.05
CCOc1ncc(Nc2cc([C@@H](CC)CC(=O)O)ccc2N(CC2CC2)CC(C)(C)O)cn1 (single isomer, unassigned) [Example 270]	> 0.05
CC(C)CN(c1ccc(C(COCC2CC2(F)F)CC(=O)O)cc1NC(=O)Nc1ccc(Cl)cc1F)C1CCCCC1 (racemic) [Example 1002, (+/−)-3-(3-(3-(4-Chloro-2-fluorophenyl)ureido)-4-(cyclohexyl(isobutyl)amino)phenyl)-4-((2,2-difluorocyclopropyl)methoxy)butanoic acid]	< 0.05
COCC(CC(=O)OC)c1ccc(N(CC(C)C)C2CCC(OC)CC2)c(NC(=O)Nc2ccc(C)cc2)c1 (racemic) [Example 1005, (+/−)-Methyl 3-(4-(isobutyl((1R,4R)-4-methoxycyclohexyl)amino)-3-(3-(p-tolyl)ureido)phenyl)-4-methoxybutanoate]	> 0.05
CC[C@@H](CC(=O)O)c1ccc(N(CC)C2CCOCC2)c(NC(=O)Nc2ccc(OC)cc2)c1 (single isomer, unassigned) [Example 492]	< 0.05
CCOc1ccc(Nc2cc([C@H](CC)CC(=O)O)ccc2N2CCC[C@H]2C(C)(C)O)cc1 (single isomer, unassigned) [Example 816]	> 0.05
CC[C@H](CC(=O)O)c1ccc(N(CC)C2CCOCC2)c(Nc2ccc(Cl)cc2)c1 (single isomer, unassigned) [Example 499]	< 0.005
CCN(c1ccc(C(C)(C)CC(=O)O)cc1NC(=O)Nc1ccc(C)cc1)C1CCOCC1 [Example 167, 3-(4-(Ethyl(tetrahydro-2H-pyran-4-yl)amino)-3-(3-(p-tolyl)ureido)phenyl)-3-methylbutanoic acid]	< 0.05
CCN(c1ccc(C(C)CC(=O)O)cc1Nc1ccc(Cl)cc1)C1CCOCC1 (single isomer, unassigned) [Example 612 E1, 3-(3-((4-Chlorophenyl)amino)-4-(ethyl(tetrahydro-2H-pyran-4-yl)amino)phenyl)butanoic acid]	< 0.005
CC[C@H](CC(=O)O)c1ccc(N(CC)C2CCOCC2)c(NC(=O)Nc2ccc(OC)cc2)c1 (single isomer, unassigned) [Example 529]	< 0.05
CC[C@@H](CC(=O)O)c1ccc(N2CCOC[C@@H]2C(C)C)c(NC(=O)Nc2cc(C)on2)c1 (single isomer, unassigned) [Example 77]	> 0.05
CCOc1ncc(Nc2cc([C@H](CC)CC(=O)O)ccc2N(CC2CC2)CC(C)(C)O)cn1 (single isomer, unassigned) [Example 274]	< 0.05
CCCN(c1ccc([C@@H](CC)CC(=O)O)cc1Nc1ccc(C#N)cc1)C1CCOCC1 (single isomer, unassigned) [Example 536]	< 0.005
CCC(CC(=O)O)c1ccc(N(CC2CC2)C2CCOCC2)c(Nc2cnc(OC)nc2)c1 (single isomer, unassigned) [Example 703, 3-(4-((cyclopropylmethyl) (tetrahydro-2H-pyran-4-yl)amino)-3-((2-methoxypyrimidin-5-yl)amino)phenyl)pentanoic acid]	< 0.005
CCCN(c1ccc([C@@H](COC)CC(=O)O)cc1Nc1ccc(Cl)cc1)C1CCOCC1 (single isomer, unassigned) [Example 564]	< 0.005
CCCN(c1ccc([C@@H](CC)CC(=O)O)cc1Nc1ccc(F)cc1)C1CCOCC1 (single isomer, unassigned) [Example 538]	< 0.005
CC[C@@H](CC(=O)O)c1ccc(N(CC(C)(C)O)C2CCOCC2)c(Nc2ccc(Cl)c(OCC(F)(F)F)c2)c1 (single isomer, unassigned) [Example 200]	< 0.05

Next, values leading:

IC50 [µM]	Structure (SMILES)
> 0.05	CCC(CC(=O)O)c1cc(F)c(N(CC(C)C)CC(C)C)c(NC(=O)c2ccc(Cl)cc2)c1 (single isomer, unassigned) [Example 127, 3-(3-(4-Chlorobenzamido)-4-(diisobutylamino)-5-fluorophenyl)pentanoic acid]
< 0.005	Cc1ccc(NC(=O)Nc2cc(C(C)CC(=O)O)c(F)cc2N(CC(C)C)C2CCCCC2)cc1 (single isomer, unassigned) [Example 956, 3-(4-(Cyclohexyl(isobutyl)amino)-2-fluoro-5-(3-(p-tolyl)ureido)phenyl)butanoic acid]
< 0.005	CC[C@@H](CC(=O)O)c1ccc(N(CC(C)C)C2CCS(=O)(=O)CC2)c(Nc2ccc3c(c2)OC(F)(F)O3)c1 (single isomer, unassigned) [Example 220]
< 0.005	CC[C@@H](CC(=O)O)c1ccc(N(CC(C)C)C2CCS(=O)(=O)CC2)c(Nc2ccc3sc(C)nc3c2)c1 (single isomer, unassigned) [Example 219]
< 0.05	COCC(CC(=O)O)c1ccc(N(CC(C)C)C2CCCCC2)c(NC(=O)Cc2ccccc2F)c1 (racemic) [Example 1230, (+/−)-3-(4-(Cyclohexyl(isobutyl)amino)-3-(2-(2-fluorophenyl)acetamido)phenyl)-4-methoxybutanoic acid]
> 0.05	CCC(CC(=O)O)c1ccc(N2CCC[C@H]2C(C)(C)F)c(NC(=O)Nc2ccc(C)cc2)c1 (single isomer, unassigned) [Example 792]
< 0.005	CCC(CC(=O)O)c1ccc(N(CC(C)C)C2CCCCC2)c(NC(=O)Cc2ccc(Cl)cc2F)c1 (racemic) [Example 1085]
< 0.005	CCC(CC(=O)O)c1ccc(N(CC(C)C)C2CCCCC2)c(NC(=O)Cc2cc(F)ccc2F)c1 (single isomer, unassigned) [Example 1098 E1]
< 0.005	CCC(CC(=O)O)c1ccc(N(CC(C)C)C2CCCCC2)c(NC(=O)Cc2cc(F)ccc2F)c1 (racemic) [Example 1087]
< 0.005	CCC(CC(=O)O)c1cc(F)c(N(CC(C)C)CC(C)C)c(NC(=O)Cc2ccc(C)cc2)c1 (single isomer, unassigned) [980-1]
> 0.05	CC[C@@H](CC(=O)O)c1ccc(N(CC(C)(C)O)C2CCOCC2)c(NC(=O)Nc2ccc(C)cc2)c1 (single isomer, unassigned) [Example 207]
< 0.005	CCOc1ccc(NC(=O)Nc2cc(C(CC)CC(=O)O)c(F)cc2N(CC(C)C)CC(C)C)cc1 (single isomer, unassigned) [Example 1132, 3-(4-(Diisobutylamino)-5-(3-(4-ethoxyphenyl)ureido)-2-fluorophenyl)pentanoic acid]
< 0.005	COCC(CC(=O)O)c1ccc(N(CC(C)C)C2CCCCC2)c(NC(=O)Nc2ccccc2F)c1 (single isomer, unassigned) [1125 E2]
< 0.005	CCOc1ccc(NC(=O)Nc2cc(C(CC)CC(=O)O)c(F)cc2N(CC(C)C)CC(C)C)c(F)c1 (racemic) [Example 1137, (±)-3-(4-(Diisobutylamino)-5-(3-(4-ethoxy-2-fluorophenyl)ureido)-2-fluorophenyl)pentanoic acid]
< 0.005	CCC(CC(=O)O)c1cc(F)c(N(CC(C)C)CC(C)C)c(NC(=O)Cc2ccc(C)cc2F)c1 (single isomer, unassigned) [Example 1094 E1]
< 0.005	COCC(CC(=O)O)c1cc(F)c(N(CC(C)C)C2CCCCC2)c(NC(=O)Nc2ccc(OC)cc2F)c1 (stereo not shown) [Example 1159, 3-(4-(cyclohexyl(isobutyl)amino)-3-fluoro-5-(3-(2-fluoro-4-methoxyphenyl)ureido)phenyl)-4-methoxybutanoic acid]
< 0.005	CCC(CC(=O)O)c1cc(F)c(N(CC(C)C)CC(C)C)c(NC(=O)Cc2ccc(C)cc2F)c1 (single isomer, unassigned) [Example 1094 E2]
> 0.05	CCC(CC(=O)O)c1ccc(N(CC(C)C)C2CCCCC2)c(Nc2ccc3c(c2)OC(F)(F)O3)c1 (single isomer, unassigned) [Example 315, 3-(4-(Cyclohexyl(isobutyl)amino)-3-((2,2-difluorobenzo[d][1,3]dioxol-5-yl)amino)phenyl)pentanoic acid]
< 0.05	CCOc1ccc(CC(=O)Nc2cc(C(COC)CC(=O)O)cc(F)c2N(CC(C)C)CC(C)C)cc1 (single isomer, unassigned) [Example 1181, 3-(4-(Diisobutylamino)-3-(2-(4-ethoxyphenyl)acetamido)-5-fluorophenyl)-4-methoxybutanoic acid]
< 0.05	COCC(CC(=O)O)c1cc(F)c(N(CC(C)C)C2CCCCC2)c(NC(=O)Nc2cc(C)on2)c1 (single isomer, unassigned) [Example 1158, 3-(4-(cyclohexyl(isobutyl)amino)-3-fluoro-5-(3-(5-methylisoxazol-3-yl)ureido)phenyl)-4-methoxybutanoic acid]
< 0.005	CCC(CC(=O)O)c1cc(F)c(N(CC(C)C)CC(C)C)c(NC(=O)Cc2ccc(F)cc2F)c1 (racemic) [Example 1082]
